Data as given in patent US20030176381A1, “Hyaluronic acid in the treatment of cancer” (priority 2002, published 2003).

Columns and labels:
B16F1 tumors [1] = test: Example 16: HA, CIS, 5-FU on B16F1 tumors in mice; format: in vivo, female C57BL/6 mice; conditions: vs Group 1 (saline); intravenously day 0 and at 3 day intervals for 4 weeks; HA 0.16-16.0 mg/kg, CIS 0.01-1.0 mg/kg or 5-FU 1.0-100.0 mg/kg
Procedure: Effect of saline, HA, CIS, 5-FU, HA+CIS and HA+5-FU on B16F1 tumors in mice 5 B16F1 cancer cells are implanted subcutaneously into 224 female C57BL/6 mice. The mice are divided into 28 groups of 8 mice (Table 16).
(§1) Saline, HA, CIS, 5-FU, HA+CIS and HA+5FU are administered intravenously in saline on day 0 and at 3 day intervals for 4 weeks (10 injections) at which time the mice are sacrificed and tumor mass and number of metastases are determined.

[2] = system: MCF-7 human breast cancer cells; test: MTT cell proliferation, MCF-7; format: cell-based; conditions: Homo sapiens, MCF7, 5-FU at 10 μg/ml alone (saline instead of HA)
Procedure: (§2) Cell proliferation was measured using dimethylthiazoldiphenyltetrazolium (MTT) reduction (Mosman et al. J. Immunol. Methods 65:55, 1983). Unless otherwise stated, 100 Al of 5 mg of MTT (Sigma-Aldrich, St. Louis, Mo., USA) dissolved in 1 ml of PBS was added into each well. After 4 h, medium was removed from each well, 1.0 ml of acid-isopropanol (0.04 N HCI in isopropanol) was added and reduced MTT was solubilized by mixing. Absorbency of the reaction product was measured at a wavelength of 570 nm using a multiplate spectrophotometer reader (Elx800 Model, Bio-TEK Instruments Inc., Winooski, Vt., USA).
(§3) Unless stated otherwise 1.0 x 10^5 cells/ml were seeded in 6-well flat-bottom tissue culture plates and were maintained for 48 h at 370 C in a 5% CO2 atmosphere.
(§4) PC-3, LNCAP and Du-145 human prostate cancer cells; MCF-7 human breast cancer cells; HT-1080 human fibrosarcoma cancer cells; B16F1 murine melanoma cells; and, UMUC-3, RT-4, HT-1376 and T-24 human bladder cancer cells were incubated with 0.8, 8.0 and 80 μg/ml of 5.0-7.5 x 10^5 Da HA (Table 2).
(§5) Unless stated otherwise 2.0 x 10^4 cells/ml were seeded in 24-well plates and were maintained for 48 h at 370 C in a 5% CO2 atmosphere. MTT was used at 50 μl per well.
(§6) T-24 human bladder cancer cells, PC-3 and Du-145 human prostate cancer cells, and MCF-7 human breast cancer cell were incubated with saline or with 80.0 jg/ml of 5.0-7.5 x 105 Da HA +1.0 μg/ml of M-DNA (Table 4).
MTT was used at 50 µl per well.
Example 8 s HA potentiation of the anti-neoplastic effect ofchemotherapeutic drugs RT-4 human bladder cancer cells and MCF-7 human breast cancer cells were incubated as in Example 6 with 0.0, 0.008 or 0.08 pg/ml of 5.0-7.5 x 10^5 Da HA +0.1 jg/ml of CIS, +1.0 jg/ml of 5-FU or +10 jig/ml of 5-FU (Table 7).
(§7) CD44 expression and the inhibition of proliferation by 5.0-7.5 x 10^5 Da HA were measured using Jurkat T cell leukemia cells; MCF-7 human breast cancer cells; RT-4, T-24, HT-1376 and UMUC-3 human bladder cancer cells; and, PC-3, Du-145 and LNCaP prostate cancer cells (Table 8)

[3] = system: RT-4 human bladder cancer cells; test: MTT cell proliferation, RT-4; format: cell-based
Procedure: Cell proliferation was measured using dimethylthiazoldiphenyltetrazolium (MTT) reduction (Mosman et al. J. Immunol. Methods 65:55, 1983). Unless otherwise stated, 100 Al of 5 mg of MTT (Sigma-Aldrich, St. Louis, Mo., USA) dissolved in 1 ml of PBS was added into each well. After 4 h, medium was removed from each well, 1.0 ml of acid-isopropanol (0.04 N HCI in isopropanol) was added and reduced MTT was solubilized by mixing. Absorbency of the reaction product was measured at a wavelength of 570 nm using a multiplate spectrophotometer reader (Elx800 Model, Bio-TEK Instruments Inc., Winooski, Vt., USA). […] PC-3, LNCAP and Du-145 human prostate cancer cells; MCF-7 human breast cancer cells; HT-1080 human fibrosarcoma cancer cells; B16F1 murine melanoma cells; and, UMUC-3, RT-4, HT-1376 and T-24 human bladder cancer cells were incubated with 0.8, 8.0 and 80 μg/ml of 5.0-7.5 x 10^5 Da HA (Table 2). […] MTT was used at 50 μl per well. HT-1376, RT-4 and T-24 human bladder cancer cells were incubated with 0.8 pg/ml of 5.0-7.5 x 10^5 Da HA +1.0 ug/ml of MCC (Table 5). […] MCF-7 human breast cancer cells; RT-4, T-24, HT-1376 and UMUC-3 human bladder cancer cells; and, PC-3, Du-145 and LNCaP prostate cancer cells (Table 8)

PC3 tumors [4] = test: Example 14: HA, CIS, 5-FU on PC3 tumors in mice; format: in vivo, male nude BALB/c mice; conditions: vs Group 1 (saline); intravenously day 0 and at 3 day intervals for 4 weeks; HA 0.16-16.0 mg/kg, CIS or 5-FU 0.1-10.0 mg/kg
Procedure: PC-3 cancer cells are implanted subcutaneously into 224 male nude BALB/c mice. The mice are divided into 28 groups of 8 mice (Table 14).
as §1

LNCaP tumors (CD44 null) [5] = test: Example 15: HA, CIS, 5-FU on LNCaP tumors in mice; format: in vivo, male nude BALB/c mice; conditions: vs Group 1 (saline); intravenously day 0 and at 3 day intervals for 4 weeks; HA 0.16-16.0 mg/kg, CIS or 5-FU 0.1-10.0 mg/kg
Procedure: Effect of saline, HA, CIS, 5-FU, HA+CIS andHA+5-FU on LNCaP tumors in mice LNCaP cancer cells (CD44 null) are implanted subcutaneously into 224 male nude BALB/c mice. The mice are divided into 28 groups of 8 mice (Tablel5).
Saline, HA, CIS, 5-FU, HA+CIS and HA+5FU are administered intravenously in saline on day 0 and at 3 day intervals-for 4 weeks-(1IOinjections) at which time the mice are sacrificed and tumor mass and number of metastasis are determined.

[6] = system: MCF-7 human breast cancer cells; test: MTT cell proliferation, MCF-7; format: cell-based; conditions: MCF-7 (2.5 X 10^5 cells/ml); oligonucleotide 100 μg/ml alone (HA 0.0 μg/ml)
[7] = system: Du-145 human prostate cancer cells; test: MTT cell proliferation, Du-145; format: cell-based; conditions: HA 8.0 μg/ml, 48 h
Procedure: as §2, §3, §4
(§8) PC-3. LNCaP and Du-145 human prostate cancer cells were incubated with 8.0 jg/ml of 5.0-7.5 x 105 Da HA or of <1.5 x 10^4 Da HA (Table 3).
as §5, §6, §7

[8] = system: PC-3 human prostate cancer cells; test: MTT cell proliferation, PC-3; format: cell-based; conditions: 48 h
Procedure: as §2, §3, §4, §8, §5, §6, §7

[9] = system: LNCaP human prostate cancer cells; test: MTT cell proliferation, LNCaP; format: cell-based; conditions: 48 h
Procedure: as §2, §3, §4, §8, §7

B16F1 tumors [10] = test: Example 13: HA, M-DNA, MCC on B16F1 tumors in mice; format: in vivo, female C57BL/6 mice; conditions: vs Group 1 (saline); intratumorally day 0 and at 3 day intervals for 4 weeks; HA 0.16-16.0 mg/kg, M-DNA or MCC 0.02-2.0 mg/kg
Procedure: Example 13 Effect of saline, HA, M-DNA, MCC, HA+M-DNA and HA +MCC on B16F1 tumors in mice B16F I cancer cells are implanted […] into 224 female C57BL/6 mice. The mice are divided into 28 groups of 8 mice (Table 13).
Saline, HA, M-DNA, MCC, HA+M-DNA and HA+MCC are administered intratumorally in saline on day 0 and at 3 day intervals for 4 weeks (10 injections) at which time the mice are sacrificed and tumor mass and number of metastases are determined.

colon-26 cancer cells = conditions: HA alone; colon-26 cells express high levels of HA receptors; cited from earlier work
PC3 tumors [11] = test: Example 11: HA, M-DNA, MCC on PC3 tumors in mice; format: in vivo, male nude BALB/c mice; conditions: vs Group 1 (saline); intravenously day 0 and at 3-day intervals for 4 weeks; HA 0.16-16.0 mg/kg, M-DNA or MCC 0.02-2.0 mg/kg
Procedure: PC-3 human prostate cancer cells are implanted subcutaneously into 224 male nude BALB/c mice. The mice are divided into 28 groups of 8 mice (Table 11).
(§9) Saline, HA, M-DNA, MCC, HA+M-DNA and HA+MCC are administered intravenously on day 0 and at 3-day intervals for 4 weeks (10 injections) at which time the mice are sacrificed and tumor mass and number of metastases are determined.

[12] = system: B16F10 murine melanoma tumor; conditions: HA 1 mg/ml over 7 days by Alzet osmotic pump into the immediate vicinity of the tumor; cited from earlier work
[13] = system: rectal, gastric, breast, prostate and endometrial cancers; conditions: HA >750 mg/kg administered with various other therapeutic agents over various periods of time; cited from earlier work
LNCaP tumors (CD44 null) [14] = test: Example 12: HA, M-DNA, MCC on LNCaP tumors in mice; format: in vivo, male nude BALB/c mice; conditions: vs Group 1 (saline); intravenously day 0 and at 3-day intervals for 4 weeks; HA 0.16-16.0 mg/kg, M-DNA or MCC 0.02-2.0 mg/kg
Procedure: Effect of saline, HA, M-DNA, MCC, HA+M-DNA and HA +MCC on LNCaP tumors in mice LNCaP human prostate cancer cells (CD44 null) are implanted subcutaneously into 224 male nude BALB/c mice. The mice are divided into 28 groups of 8 mice (Table 12).
as §9

[15] = target: CD44 cell surface HA receptor (human) (UniProt P16070); test: flow cytometry, FITC-CD44 on RT-4 human bladder cancer cells (unstained cells: 4)
[16] = target: CD44 cell surface HA receptor (human) (UniProt P16070); test: flow cytometry, FITC-CD44 on T-24 human bladder cancer cells (unstained cells: 3)
[17] = target: CD44 cell surface HA receptor (human) (UniProt P16070); test: flow cytometry, FITC-CD44 on HT-1376 human bladder cancer cells (unstained cells: 4)
[18] = target: CD44 cell surface HA receptor (human) (UniProt P16070); test: flow cytometry, FITC-CD44 on MCF-7 human breast cancer cells (unstained cells: 3)
[19] = target: CD44 cell surface HA receptor (human) (UniProt P16070); test: flow cytometry, FITC-CD44 on Du-145 human prostate cancer cells (unstained cells: 3)
[20] = target: CD44 cell surface HA receptor (human) (UniProt P16070); test: flow cytometry, FITC-CD44 on UMUC-3 human bladder cancer cells (unstained cells: 3)
[21] = target: CD44 cell surface HA receptor (human) (UniProt P16070); test: flow cytometry, FITC-CD44 on PC-3 human prostate cancer cells (unstained cells: 6)

Sequence of UniProt P16070 (P16070 21-742): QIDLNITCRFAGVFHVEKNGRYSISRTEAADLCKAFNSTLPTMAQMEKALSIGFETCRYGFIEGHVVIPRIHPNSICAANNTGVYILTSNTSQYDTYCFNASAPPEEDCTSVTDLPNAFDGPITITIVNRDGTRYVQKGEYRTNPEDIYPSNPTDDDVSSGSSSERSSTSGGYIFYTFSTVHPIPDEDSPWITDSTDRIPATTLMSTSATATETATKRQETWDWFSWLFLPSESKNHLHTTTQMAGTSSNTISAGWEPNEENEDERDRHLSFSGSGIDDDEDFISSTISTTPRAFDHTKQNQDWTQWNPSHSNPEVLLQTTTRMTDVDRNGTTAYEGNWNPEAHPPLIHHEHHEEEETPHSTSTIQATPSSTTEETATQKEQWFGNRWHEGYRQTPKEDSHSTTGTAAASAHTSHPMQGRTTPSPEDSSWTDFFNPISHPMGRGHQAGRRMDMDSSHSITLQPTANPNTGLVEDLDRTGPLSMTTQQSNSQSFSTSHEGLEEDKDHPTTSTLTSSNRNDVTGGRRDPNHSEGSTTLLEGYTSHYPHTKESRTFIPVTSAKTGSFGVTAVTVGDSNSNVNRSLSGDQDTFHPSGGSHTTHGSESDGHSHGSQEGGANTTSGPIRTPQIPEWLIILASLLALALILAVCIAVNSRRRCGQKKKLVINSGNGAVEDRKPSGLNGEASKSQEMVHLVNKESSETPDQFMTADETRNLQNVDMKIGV

Molecule: O=c1[nH]cc(F)c(=O)[nH]1 [5-FU, 5-fluorouracil]
- number of metastases (B16F1 tumors [1]): fewer metastases
- tumor mass (B16F1 tumors [1]): less tumor mass
- inhibition at 10 µg/mL [2]: 18%
- inhibition at 1 µg/mL ([3]; Homo sapiens, 5-FU at 1.0 μg/ml alone (saline instead of HA)): 14%
- number of metastases (PC3 tumors [4]): fewer metastases
- tumor mass (PC3 tumors [4]): less tumor mass
- number of metastasis (LNCaP tumors (CD44 null) [5]): fewer metastases
- tumor mass (LNCaP tumors (CD44 null) [5]): less tumor mass

Molecule: N.N.[Cl][Pt][Cl] [CIS, cisplatin]
- number of metastases (B16F1 tumors [1]): fewer metastases
- tumor mass (B16F1 tumors [1]): less tumor mass
- % INHIBITION of cell proliferation ([3]; CIS at 0.1 μg/ml alone (saline instead of HA)): 2%
- number of metastases (PC3 tumors [4]): fewer metastases
- tumor mass (PC3 tumors [4]): less tumor mass
- number of metastasis (LNCaP tumors (CD44 null) [5]): fewer metastases
- tumor mass (LNCaP tumors (CD44 null) [5]): less tumor mass

Molecule: (G1T)13G: synthetic 27 base oligonucleotide (GTGTGTGTGTGTGTGTGTGTGTGTGTG; listed as DNA, chemistry not given here)
- % INHIBITION of cell proliferation [6]: 44%

Molecule: GG(GT)1GG: synthetic 6 base oligonucleotide
- % INHIBITION of cell proliferation [6]: 20%

Molecule: Hyaluronic acid [<1.5 × 10^4 Da HA]
- % INHIBITION of cell proliferation [7]: 37%
- % INHIBITION of cell proliferation ([8]; HA 8.0 μg/ml): 5%
- % INHIBITION of cell proliferation ([9]; HA 8.0 μg/ml): 24%

Molecule: Hyaluronic acid [HA]
- number of metastases (B16F1 tumors [10]): fewer metastases
- tumor mass (B16F1 tumors [10]): less tumor mass
- growth of cancer cells (colon-26 cancer cells): significantly inhibits the growth
- number of metastases (PC3 tumors [11]): fewer metastases
- tumor mass (PC3 tumors [11]): less tumor mass
- reduced tumor volume [12]: > 85%
- number of metastases (B16F1 tumors [1]): fewer metastases
- tumor mass (B16F1 tumors [1]): less tumor mass
- effect on cancers [13]: reduced or eliminated
- number of metastases (PC3 tumors [4]): fewer metastases
- tumor mass (PC3 tumors [4]): less tumor mass
- % INHIBITION of cell proliferation ([8]; HA 80.0 μg/ml): 30%
- number of metastasis (LNCaP tumors (CD44 null) [5]): fewer metastases
- tumor mass (LNCaP tumors (CD44 null) [5]): less tumor mass
- number of metastases (LNCaP tumors (CD44 null) [14]): fewer metastases
- tumor mass (LNCaP tumors (CD44 null) [14]): less tumor mass
- % INHIBITION of cell proliferation ([9]; HA 80.0 μg/ml): 26%

Molecule: fluorescent anti-HA receptor monoclonal antibody FITC-CD44 (clone G44-26 (C26), Pharmingen)
- mean fluorescent units (mean fluorescent units) [15]: 60
- mean fluorescent units (mean fluorescent units) [16]: 1800
- mean fluorescent units (mean fluorescent units) [17]: 200
- mean fluorescent units (mean fluorescent units) [18]: 70
- mean fluorescent units (mean fluorescent units) [19]: 450
- mean fluorescent units (mean fluorescent units) [20]: 1800
- mean fluorescent units (mean fluorescent units) [21]: 400
